The source of these data is BindingDB's records for patent US12378249 (Genentech, 2025).

Assay [1] has as its target Mitogen-activated protein kinase kinase kinase kinase 1 (Homo sapiens, UniProt Q92918). The assay can be described thus: HPK1 Lantha Binding Assay (“Lanth”). As to the method: (§1) Assay Condition:The following assay concentrations and times were used: 2 nM HPK1, 2 nM Eu-Anti-GST Ab, and 15 nM Tracer222, with 60 min incubation time.HPK Lantha Binding Assay:For the binding assay, 4 ul 2X HPK1 and Eu-anti-GST antibody were added to each well of the assay plate using a Multidrop reagent dispenser. The solutions were incubated in a 23 C incubator for 1 h. To each well of the assay plate was added 4 ul 2× Tracer-222 using a Multidrop reagent dispenser. The solutions were again incubated in a 23 C incubator for 1 h. The results of the assay were read using an Envision plate reader with the following parameters:TR_FRET, 340ex/615 and 665em; 100 usec Delay; and 200 usec integration.

Assay [2] has as its target T1, Mitogen-activated protein kinase kinase kinase kinase 1 [T165E,S171E] (Homo sapiens, UniProt Q92918, S171E/T165E).
T1 construct: gene MAP4K1
The assay can be described thus: HPK1 Lantha Binding Assay (“Lanth”). On the procedure: as §1

Sequence of Mitogen-activated protein kinase kinase kinase kinase 1 (Q92918 whole entry): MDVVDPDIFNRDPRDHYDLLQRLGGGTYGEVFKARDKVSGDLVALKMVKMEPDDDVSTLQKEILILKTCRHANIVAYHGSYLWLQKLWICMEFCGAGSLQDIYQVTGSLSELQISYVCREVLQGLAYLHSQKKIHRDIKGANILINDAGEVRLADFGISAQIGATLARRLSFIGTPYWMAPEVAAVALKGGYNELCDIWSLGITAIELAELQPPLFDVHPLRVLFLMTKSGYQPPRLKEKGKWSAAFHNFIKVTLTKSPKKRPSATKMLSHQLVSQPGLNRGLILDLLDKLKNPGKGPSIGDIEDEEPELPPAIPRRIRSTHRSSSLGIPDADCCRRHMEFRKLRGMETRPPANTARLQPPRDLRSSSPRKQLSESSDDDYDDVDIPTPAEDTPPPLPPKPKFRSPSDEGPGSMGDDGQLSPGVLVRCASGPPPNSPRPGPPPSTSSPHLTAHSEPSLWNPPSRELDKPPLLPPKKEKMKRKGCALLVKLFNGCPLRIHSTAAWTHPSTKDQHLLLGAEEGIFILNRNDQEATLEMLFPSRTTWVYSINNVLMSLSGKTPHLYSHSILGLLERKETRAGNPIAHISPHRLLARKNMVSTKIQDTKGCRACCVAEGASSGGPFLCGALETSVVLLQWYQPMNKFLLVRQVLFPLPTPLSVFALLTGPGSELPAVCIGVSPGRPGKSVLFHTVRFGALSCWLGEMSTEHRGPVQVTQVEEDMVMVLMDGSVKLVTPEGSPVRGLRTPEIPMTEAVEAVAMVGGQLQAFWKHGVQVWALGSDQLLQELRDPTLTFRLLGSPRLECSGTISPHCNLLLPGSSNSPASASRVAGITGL
T1 sequence (Q92918 whole entry T165E/S171E, looked up): as the sequence (Q92918 whole entry) above, with T165E, S171E counted along it

Take `CCc1ccnc(Nc2cc3cc(-c4cnccc4C)ccc3cn2)c1` [US12378249, Compound 105]: the Ki (commonly the dissociation constant of the complex between target and ligand, obtained from inhibition or displacement) in assay [1] worked out at 6 nM. `Cc1c(N)cncc1-c1cc2cc(Nc3cc4n(n3)CC(=O)N(CCN3CC(O)C3)CC4)ncc2cc1F` [US12378249, Compound 165] displayed a Ki in assay [2] of 0.013 nM. This lies in the picomolar range.
